Measured values from patent US20260007651A1, “Effect of YEL002 on Conditions and Diseases” (RadMit, Inc., priority 2022, published 2026).

Experiments:
[1] = Patient testimonial: veins and blood; conditions: human, in vivo
From the text: His blood is thinner, since proinflammatory factors make platelets sticky and cause blood clots. Thus, it prevents or treats blood clots.

ATM-deficient mice = assay: Lifespan of ATM-deficient mice injected weekly; type: in vivo; conditions: ATM-deficient mice injected every week during most of their lifespans
[2] = system: three different cancer cell lines; assay: Radiation killing of cancer cell lines; type: cell-based
[3] = Case study, eight weeks of use (coughing, diarrhea); type: in vivo, human; conditions: used for eight weeks
From the text: It has also beneficial effects on the skin and one needs less of a cosmetic cream containing the same compound.

human keratinocytes = assay: Proteomics study of induced proteins; type: cell-based
From the text: In terms of mechanism of action in a proteomics study, the chemical was capable of inducing 244 different proteins in human keratinocytes, which comprised anti-inflammatory proteins, a number of DNA repair proteins, and even some neuroprotective proteins. It is known that turtles at the Galapagos Islands live 150 or more years without cancer and have multiple copies of DNA repair genes and anti-inflammatory genes. The compound boosts the expression of these genes in mammals. Since it induces DNA repair and is anti-inflammatory, it may be possible to prevent and cure many diseases and extend the life. In addition, patients are using the compound to try to treat Alzheimer's, multiple sclerosis, alopecia, diabetes, to prevent prostate cancer, to increase testosterone level, etc. People report feeling more energetic, less tired, and less combative and become nicer.

lymphoma = assay: Lymphoma incidence in mice (National Institute of Health experiment); type: in vivo; conditions: radiation exposure caused 90% to develop lymphoma without treatment
Experimental: This was observed after treating mice right after birth, if humans are treated later in life it is possible that only 10 or 5 years are added and probably more for DNA repair deficient diseases like ataxia telangiectasia (ATM) which is still very substantial.

[4] = Patient testimonial: subject post-chemotherapy, coughing and wheezing; type: in vivo, human; conditions: one hour after treatment
From the text: According to another patient testimonial, one subject post-chemotherapy had coughing and wheezing symptoms and went downhill very fast and their child was worried that they were dying.

Side effects observed = conditions: in vivo
From the text: It is also observed that three different cancer cell lines were not protected from radiation killing by YEL002, which indicates a use in radiation oncology or chemotherapy where the tumor can still be killed by the radiation, or chemotherapy but YEL002 protects the rest of the body from radiation or chemotherapy damage, and inhibits secondary carcinogenesis.

[5] = Patient testimonial: nose spray in oil, allergic attacks; type: in vivo, human; conditions: dissolved in oil, nose spray 2-4 times a day
From the text: According to another patient testimonial, one subject dissolved YEL002 in oil and used that oil to spray their nose 2-4 times a day.

[6] = Patient testimonial: elevated levels of liver damage; type: in vivo, human; conditions: after two days of treatment; twice elevated for 25 years before
[7] = User study: periodontics or receding gums; set-up: species or system human; conditions: in vivo
From the text: In a user study, the patient's periodontics or receding gums were healed and no longer needed to floss teeth as much, since the teeth are now perfectly aligned and close together without a space in between.

Solubility / appearance = type: physicochemical
Experimental: The compound takes the appearance of an off-white powder and is fat soluble. One takes a quarter teaspoon or about 0.5 g dissolved in a couple of teaspoons of oil. In an exemplary embodiment, it is dissolved in grape seed oil and taken twice a day, once in the morning and once in the evening. It is easy to use and has almost no taste.

[8] = Patient testimonial: subject on chemotherapy; type: in vivo, human; conditions: one week on YEL002, subject on chemotherapy
From the text: They are extremely happy and all their doctors are happy too and told them that they need to continue their experimental therapy.

[9] = system: mice irradiated with an LD100; assay: Radiation mitigation: survival of mice irradiated with an LD100; type: in vivo
Experimental: There were 10 primary hits and 6 confirmed hits and 2 of them were used in mice. Mice were irradiated with an LD100 after which 100% of the mice died after 10 to 15 days. When the researchers injected YEL002 IP into the irradiated mice 24 hours after radiation and another four doses in 24 hours intervals 100% of the mice, so all mice which would otherwise have died survived which was a highly significant difference. Many lived a normal life span of more than 2 years which is interesting since other labs which isolated other compounds their mice died of late radiation effects much earlier.

[10] = Eye sight, eye exam in an ophthalmology office; type: in vivo, human
Experimental: The patient also observed no longer needing eyeglasses after 55 years of wearing them, and after 4 weeks with the drug, the subject can see much better than anybody their age. According to the patient, the compound fixed 2 diopters and 1 astigmatism of eye sight deficiency in only 4 weeks. An eye exam was conducted in an ophthalmology office. […] In every subject using the chemical the eye background is completely green, because YEL002 benefits the retina and optic nerve.

[11] = Patient testimonial: heavy smoker, smoker's leg and hair loss; type: in vivo, human; conditions: one week after treatment
From the text: According to another patient testimonial, one subject was a heavy smoker and they had all kinds of inflammation problems including smoker's leg which were oozing lymph liquid and could not heal for many years.

COc1ccc2cc(-c3nc4ccc(C)cn4c3NCc3ccco3)c(=O)[nH]c2c1 [YEL002]
blood [1]: thinner | varicose and spider veins [1]: fixes varicose and spider veins | lived longer than without injections (ATM-deficient mice): 33% | protection of cancer cell lines from radiation killing [2]: not protected | symptoms of coughing and diarrhea [3]: reduced symptoms of coughing and diarrhea | number of different proteins induced (human keratinocytes; human keratinocytes, anti-inflammatory, DNA repair and neuroprotective proteins): 244 | number of neuroprotective functions induced (human keratinocytes; proteomics): 9 | lymphoma incidence after radiation exposure (lymphoma): 40% | coughing and wheezing symptoms [4]: completely alleviated | side effects (Side effects observed): no side effects | allergic attacks such as sneezing and runny nose [5]: completely prevented all allergic attacks | levels of liver damage [6]: normal and below the cutoff | periodontics or receding gums [7]: healed | solubility (Solubility / appearance): fat soluble | body weight gained [8]: 2 kg | vomiting [8]: completely stopped | mice survived ([9]; LD100 irradiation, IP 24 hours after radiation and another four doses in 24 hours intervals, without treatment 100% died after 10 to 15 days): 100% | life span of surviving irradiated mice ([9]; many of the surviving mice): more than 2 years | need for eyeglasses ([10]; another subject who had 6 diopters): does not require eyeglasses any longer | eye sight deficiency fixed, astigmatism ([10]; in 4 weeks): 1 astigmatism | eye sight deficiency fixed, diopters ([10]; in 4 weeks): 2 diopters | hair loss [11]: completely stopped | smoker's leg condition [11]: completely healed
